Source: a melting point compilation (Tetko et al.; mined from patent text by program, amines drawn as free bases though some values may be those of a salt)

melting point [°C] | SMILES
208 to 211 | COc1cc(Nc2nc3cccc(-c4ccc(CN)cc4)c3o2)cc(OC)c1OC
130 | COc1c([N+](=O)[O-])cc(C=O)c(Cl)c1O
222 | Cc1ccc2c(=O)nc(-c3cccc(CCC(=O)O)n3)sc2c1
51 to 54 | COC(=O)c1cscc1NC(=O)C(F)Cl (stereo unspecified)
115 to 118 | Cc1cccc(C)c1N(Cn1cncn1)C(=O)CCl
235 | CC1(C)CCC(C)(C)c2cc(-c3cc(-c4ccc(C(=O)O)cc4)ccc3OCCCCO)ccc21
179 to 180 | C=CCn1c(=O)c2c(nc(/C=C/c3cc(OC)c(OC(=O)c4ccccc4)c(OC)c3)n2C)n(CC=C)c1=O
136 to 139 | CN1C(=O)C(C#N)(c2ccc(OCC3CO3)cc2)Sc2ccccc21 (stereo unspecified)
37 to 38 | O=C(CCCCCCCCCCS(=O)c1ccccc1[N+](=O)[O-])OCc1ccccc1 (stereo unspecified)
217 to 218 | CC(=O)NC(Cc1ccccc1)C(=O)Nc1c(C)cccc1C (stereo unspecified)
133 to 134 | CN1C2=CC=CN(CCc3ccc(OCc4ccccc4)cc3)C2=Nc2ccccc2S1(=O)=O
168 to 174 | Cc1nnn(Cc2cc(-c3ncco3)ccc2-c2ccccc2S(=O)(=O)Nc2onc(C)c2C)n1
160 | O=C(O)/C(=C/c1ccccc1)CSC(=O)c1ccccc1
84 to 124 | O=C(O)c1cccc(NC(=O)C(COC2CCCCO2)NS(=O)(=O)c2ccc(Cl)cc2)c1 (stereo unspecified)
196 to 197 | CC1(C)OC(=O)C(Oc2ccc(Cl)nc2)=C1c1ccc(S(C)(=O)=O)cc1
165 to 166 | CC(=O)c1ccc(S(=O)(=O)Nc2ccon2)cc1
150 to 151 | COc1cc(Nc2nccc(-c3ccc(N4CCNC(CCO)C4)nc3)n2)cc(OC)c1OC (stereo unspecified)
203 to 205 | COc1ccc(N2C(=O)NC(=O)C23CCCCC3)cc1
261 to 262 | CN(C)c1nc2sc3c(NCCc4c[nH]cn4)ncnc3c2c2c1CCC2(C)C
54 to 54.5 | CCCc1ccc2nc(C(=O)OCC)cn2n1
97.5 to 99.4 | CS(=O)(=O)NC(=O)C1(CCCCCCCCCCCCC2(C(=O)O)CC2)CC1
180 to 181 | Cc1cc(Cl)cc(C(=O)NC(C)C2CC2)c1NC(=O)c1cc(Br)nn1-c1ccccc1Cl (stereo unspecified)
77 to 79 | O=C(O)CC1(O)CC(CCCCCCc2ccc(Cl)cc2Cl)OC1=O (stereo unspecified)
94.5 to 95.5 | CC(=O)SC1CN(C(=O)OCc2ccccc2)C1
109 to 110 | COCCNC(=O)c1cc(F)cc(-c2cccc3c(F)c(Cc4cccc(C(F)(F)F)c4)sc23)c1

melting point [°C] | SMILES
194 to 196 | CC(=O)OCCOc1ccc2oc3cc(C#N)ccc3c(=O)c2c1
> 250 | Cc1cc(-c2ccc(C(F)(F)F)cc2)nc(-c2ccnc(-c3cccc(S(N)(=O)=O)c3)n2)c1
242 | Cn1nc(-c2cc3c(cc2F)NC(=O)CO3)c(Cl)c1C(F)(F)F
128 to 131 | COc1ccc(N2CCN(c3c(C)c(C)c4c(c3C)C(c3ccsc3)C(C)(C)O4)CC2)cc1 (stereo unspecified)
129 to 130 | CC(C)COC(=O)Oc1c(S(N)(=O)=O)sc2ccccc12
214 to 216 | O=C1CCC(N2C(=O)c3cccc(Nc4ccccc4)c3C2=O)C(=O)N1 (stereo unspecified)
265 to 266 | O=C(O)COc1ccc2c(c1)C[C@H](NC[C@H](O)c1cccc(Cl)c1)CCC2
177 to 179 | Cc1ccc(S(=O)(=O)NCCNC2(c3ccc(Cl)cc3)OC(=O)c3ccccc32)cc1 (stereo unspecified)
173 to 175 | O=[N+]([O-])c1cc(S(=O)c2ccc(-c3ccc(Br)cc3)cc2)ccc1Cl (stereo unspecified)
84 to 87 | O=C1N(CC(F)(F)F)C(=NCc2ccc(OC(F)(F)F)cc2)SCN1c1ccccc1
280 to 281 | COc1ccc(NC=C2C(=O)OC(=O)c3cc4cccc(C)c4nc32)cc1OC
131 to 134 | CC(C)CC(NC(=O)CNc1ccc(Cl)cc1)C(=O)NCC#N (stereo unspecified)
171 to 173 | CC(C)(C)OC(=O)Nc1cccc(C(=O)NCC(=O)OCc2ccccc2)c1
118 to 120 | CN(CCc1c[nH]c2ccc(CNS(C)(=O)=O)cc12)C(=O)OCc1ccccc1
161 to 164 | C=C(c1ccc2nc(N)n(S(=O)(=O)C(C)C)c2c1)c1cc(F)ccc1F
103 to 104 | O=C(O)c1ccc2c(c1)Sc1cc3c(cc1C=C2)CCC3
141 to 143 | COc1ccc(-c2nc(CCOc3ccc(CC4OC(=O)NC4=O)cc3)c(C)o2)cc1 (stereo unspecified)
130 to 133 | Fc1ccc2onc(CCCN3CCN(c4cc5ccccc5cn4)CC3)c2c1
65 to 67 | CCC(CC)NC(=O)n1nc(Oc2c(Cl)cc(C(F)(F)F)cc2Cl)cc1C
83 to 85 | CCC1(C)C(=O)N=C(SCc2ccccc2N(C)C)N1C(C)=O (stereo unspecified)
105 to 106 | COc1cc(C)cc2ncc(Br)n12
282 to 284 | Nc1nc2c(sc(=O)n2C2OC(COC(=O)c3ccccc3)C(OC(=O)c3ccccc3)C2F)c(=O)[nH]1 (stereo unspecified)
230 to 231 | CCc1c(NC(=O)c2ccc(Br)cc2)ccc2cc(CN3CCCC3)cnc12
156 to 157 | Brc1ccc2sc(-c3ccccc3)c(N3CCN(Cc4ccccc4)CC3)c2c1

Continued, molecule first:

SMILES | melting point [°C]
CCCc1c(COc2ccc3c(=O)cc(C(=O)O)oc3c2CCC)ccc(C(C)=O)c1O | 195 to 205
O=C1c2cc(OC(F)F)ccc2CN1c1ccc2c(c1)CCC2 | 137 to 139
N#CCNC(=O)C(Cl)c1ccccc1 (stereo unspecified) | 73 to 74
c1ccc2c(c1)CCc1cc(C3CO3)ccc1-2 (stereo unspecified) | 65 to 66
O=C(NCCN1CCOCC1)Nc1nc2ccc(OCc3c(F)cccc3F)cc2s1 | 219
CCOC(=O)C(=CNc1ccc(F)c(F)c1OCC(C)O)C(=O)OCC (stereo unspecified) | 52 to 55
C[C@@H](NC(=O)[C@H](Cc1ccc(O)cc1)NC(=O)OC(C)(C)C)C(=O)NCC(=O)Oc1c(Cl)c(Cl)c(Cl)c(Cl)c1Cl | 222
O=c1ccn(CC(O)CO)c(C(OC2CCCCO2)c2ccccc2)c1OCc1ccccc1 (stereo unspecified) | 190 to 206
Cn1c(=O)sc2cc(C(=O)CSCCC(=O)O)c(Cl)cc21 | 120 to 121
CCCCCCCCCCCCCCOc1cccc(C(=O)N(CC(=O)OC)CC(=O)OC)c1 | < 23
CCCCC(=O)OC1C(O)C(CO)OC1n1cnc2c(OC)nc(N)nc21 (stereo unspecified) | 83 to 86
COc1ccc2occ(CCN3CCN(c4cccc5cccnc45)CC3)c2c1 | 78
COc1cc(COc2cc(Cn3cncn3)n(-c3ccccc3)n2)ccc1OCc1nc(-c2ccco2)oc1C | 95 to 96
Cc1cccc(NC(=O)c2cc(Cl)cc(C)n2)n1 | 130
COC1(c2ccccc2)OC=C(c2ccc(C(=O)O)cc2)C1=O (stereo unspecified) | 212 to 214
COc1cc(-c2ccc(C#N)cc2)cc(-c2nc3cc(C#N)ccc3[nH]2)c1O | 334 to 335
Nc1cc[nH]c(=O)c1Cl | 264 to 267
CC(=NOCc1cc(C(F)(F)F)ccc1C(F)(F)F)c1cc(Cl)ccc1NS(=O)(=O)C(F)(F)F | 73 to 75
CCOCCn1c(NC2CCN(CC(=O)O)CC2)nc2cccnc21 | 227
CC(=O)Nc1ccc2cccc(N3CCN(C)CC3)c2c1 | 173 to 177
O=C(O)COc1ccc(Br)cc1C(=O)NCc1ccc(Br)cc1F | 153 to 155
COc1cc(NCCN(C)Cc2ccccc2)ccc1C(N)=O | 153 to 155
CC(C)(C)OC(=O)Nc1ccc(C#Cc2nccs2)cc1NC(=O)CC(=O)c1cccc(C#N)c1 | 131
O=C1CCC=C2N=CC=NC=C12 | 141 to 146

SMILES | melting point [°C]
Nc1c(C(=O)c2ccoc2)[nH]c2cc(Cl)ccc12 | 113 to 114
CC(=O)OCc1ccc(CC(C)NCC(O)c2ccccc2)cc1 (stereo unspecified) | 78 to 82
N#Cc1cc(F)c(-n2nc(C(F)(F)F)n(C(F)F)c2=O)cc1F | 68
COCCOc1ccc(/C=C/C(=O)O)c(Oc2ncc(Cl)cc2Cl)c1 | 182 to 184
O=C(OC1CCCC1)c1ncn2c1[C@@H]1CCN1C(=O)c1c(I)cccc1-2 | 184 to 185
COc1ncnc(N2CCc3ccccc3CC2)c1[N+](=O)[O-] | 147 to 150
NC(=O)[C@@H]1[C@H](Nc2c(Br)cnc3[nH]c(-c4cccnc4N4CCOCC4)nc23)[C@H]2C=C[C@@H]1C2 | 150
Cn1cc(-c2ccccc2)c(=S)c(-c2cccc(Cl)c2)c1 | 190 to 193
COc1ccc(-c2snnc2-c2ccccc2)cc1 | 56.5 to 58
COc1cc(C=Cc2nc3c([nH]2)c(=O)n(C)c(=O)n3C)cc(OC)c1 | > 320
CC1(C)C(C=CC(=O)Cl)C1C(=O)OC(C#N)c1cccc(Oc2ccccc2)c1 (stereo unspecified) | 86
Cc1ccc(S(=O)(=O)N2CC(CO)(CO)C2)cc1 | 148 to 150
CCCCCCCCCCOc1ccc(-c2ccc(OCCCCCCCCCC)c(OCCCCCCCCCC)c2)cc1OCCCCCCCCCC | 85 to 86
CC(c1oc2ccc(F)cc2c(=O)c1-c1ccccc1F)n1cnc2c(N)ncnc21 (stereo unspecified) | 245 to 248
COc1ccc(NC(=O)c2ccc([N+](=O)[O-])cc2N)cc1 | 193 to 197
COC(=O)CCNCC1CC2c3cccc4[nH]cc(c34)CC2N(C)C1 (stereo unspecified) | 130 to 132
CCCCS(=O)(=O)NCCc1nc(-c2ccc(-c3ccccc3)cc2)c[nH]1 | 168
Clc1ccccc1C(c1ccc(-c2ccccc2)cc1)n1ccnc1 (stereo unspecified) | 90
CC(=O)c1c(C)[nH]c(CC(C)C)c1C | 150 to 152
CC(C)(C)OC(=O)N1CCN(c2nccc(Oc3ccc(NC(=O)c4cc(F)cc(N5CCOCC5)c4)c4ccccc34)n2)CC1 | 131 to 133
CCCOc1cc(CCCOc2nn(Cc3ccccc3)cc2CC(=O)O)n(Cc2ccc(Cl)cc2Cl)n1 | 132 to 134
CN1C(=O)[C@H](NC(=O)Nc2cccc(CC(=O)O)c2)N=C(c2ccccc2)c2ccccc21 | 167 to 170
CC(=O)N1CCC(C(=O)OC2c3ccccc3C(=O)N2c2ccc3ccc(Cl)nc3n2)CC1 (stereo unspecified) | 101
